The results in this text go back to patent US10023518B2, “Substituted aromatic compounds and related method for the treatment of fibrosis” (PROMETIC BIOSCIENCES INC., priority 2013, dated 2018).

SMILES strings stand for the structures.

The test system of data set [1] is α-SMA mRNA expression in TGF-β induced NRK-49F cells. Kind of data set: Inhibition of α-SMA mRNA expression in TGF-β induced NRK-49F cells (quantitative real-time PCR). The class given is cell-based, rat. The following applies: TGF-β 10 ng/ml. The method, then:
In fibroblast, analysis was undertaken to determine the effect of preferred compounds of the present invention on TGF-β-induced α-SMA (marker of fibrosis) mRNA expression on normal rat kidney fibroblast (NRK-49F). NRK-49F were treated with TGF-β at a concentration of 10 ng/ml and became activated (myofibroblast) and expressed α-SMA. Expression of the profibrotic marker α-SMA was determined by quantitative real-time PCR.
A general note: Quantitative PCR measures a nucleic acid by following its amplification.

Data set [2] relates to collagen 1 mRNA expression in TGF-β induced HK-2 cells. Kind of data set: Inhibition of collagen 1 mRNA expression in TGF-β induced HK-2 epithelial cells (quantitative real-time PCR). It counts as cell-based, human. Conditions: TGF-β 10 ng/mL; for expression of collagen in TGF-β-induced HK-2 cells (in words): concentration not given. The method, then: In epithelial cells, analysis was undertaken to determine the effect of compounds of the invention on TGF-β-induced collagen 1 (marker of fibrosis) on human proximal tubule epithelial cells (HK-2). HK-2 cells are immortalized proximal tubule epithelial cells, from human kidney, which were treated with TGF-β at a concentration of 10 ng/mL Expression of the profibrotic marker collagen 1 was determined by quantitative real-time PCR.

The next data set relates to db/db diabetic mouse. Kind of data set: Glomerular filtration rate in nephrectomised db/db diabetic mouse model of renal fibrosis. The class given is in vivo. Conditions: db/db mice, right nephrectomy day 0, GFR on day 119. Here is the method:
FIG. 1 illustrates the glomerular filtration rate (GFR) function in db/db diabetic mouse compared to C57BL/6 mice (control mice), and in db/db diabetic mouse following oral treatment with Compound 1 at a dose of 10 and 50 mg/kg.
Typical experimental models of kidney fibrosis in mice or rats include db/db nephritic mice (models for diabetic nephropathy) and reflects the nephropathy observed in human. Evaluation of the effect of Compound 1 on diabetic nephropathy was performed in a db/db mouse model. Briefly, total nephrectomy of the right kidney was performed on day 0 and db/db mice (6-week old) were treated with vehicle or Compound 1 (10 and 50 mg/kg, oral once a day) from day 1 and glomerular filtration rate (GFR) was measured on day 119 as a direct measure of kidney function. FIG. 1 illustrates the reduction of GFR in db/db diabetic mouse compared to C57BL/6 mice (control mice), showing clearly the nephropathy associated with diabetes.

With `CCCCCc1cc(CCCCC)c(O)c(CC(=O)[O-])c1.[Na+]` [Compound 3, Sodium Salt of 2-(2-Hydroxy-3,5-dipentylphenyl)acetic acid], the “α-SMA expression in NRK-49F % of inhibition [mM]” value in data set [1] (0.0125 mM compound) was found to be 100% [0.0125].

Regarding `CCCCCCc1cc(CCCCCC)cc(CC(=O)[O-])c1.[Na+]` [Compound 2, Sodium Salt of 2-(3,5-Dihexylphenyl)acetic acid], in data set [2] (0.008 mM compound), the “Collagen expression in HK-2 cells % of inhibition [mM]” value came to 100% [0.008]. The “expression of collagen in TGF-β-induced HK-2 cells (in words)” value in data set [2] is “inhibits the expression of collagen”. Besides, the “α-SMA expression in NRK-49F % of inhibition [mM]” value in data set [1] (0.006 mM compound) came to 89% [0.006].

As to `CCCCCc1cc(CCCCC)cc(CC(=O)[O-])c1.[Na+]` [Compound 1, Sodium 2-[3,5-Dipentylphenyl]acetate], the melting point – broadly, the temperature, or range, at which the solid turns liquid – lay within 225 to 230 °C. In addition, in the data set with db/db diabetic mouse (10 mg/kg oral once a day from day 1), the “glomerular filtration rate (GFR)” value is reported as “increases the GFR function of the kidney up to normal”. The “glomerular filtration rate (GFR)” value in the data set on db/db diabetic mouse (50 mg/kg oral once a day from day 1) is “increases the GFR function of the kidney up to normal”. Further, in data set [2] (0.02 mM compound), the “Collagen expression in HK-2 cells % of inhibition [mM]” value turned out to be 100% [0.02]. The “expression of collagen in TGF-β-induced HK-2 cells (in words)” value in data set [2] is reported as “inhibits the expression of collagen”. Moreover, in data set [1] (0.01 mM compound), the “α-SMA expression in NRK-49F % of inhibition [mM]” value was 94% [0.01].

On to `CCCCCc1cc(CC(=O)[O-])cc(CCCCC)c1O.[Na+]` [Compound 5, Sodium Salt of 2-(4-Hydroxy-3,5-dipentylphenyl)acetic acid], for which the “α-SMA expression in NRK-49F % of inhibition [mM]” value in data set [1] (0.025 mM compound) is 41% [0.025].
